Molecules are shown by their SMILES. Counter-ions that a name gives are not always drawn.

For `COc1ccc(S(=O)(=O)c2ccc3ccccc3c2)cc1N1CCNCC1`, the melting point (in general, the temperature, or range, at which the solid turns liquid) fell in the range of 279.9 to 283.3 °C.

Molecule `COc1ccc(S(=O)(=O)c2ccc(Cl)cc2)cc1N1CCNCC1` had a melting point of 263.4 to 272.1 °C.

For the molecule `COc1ccc(S(=O)(=O)c2cccc(Cl)c2)cc1N1CCNCC1`, the melting point was in the range of 265 to 266.3 °C.

The molecule `COc1ccc(S(=O)(=O)c2cc(Cl)cc(Cl)c2)cc1N1CCNCC1` displayed a melting point of 245.9 to 246.2 °C.

In turn, `COc1ccc(S(=O)(=O)c2cccc(F)c2)cc1N1CCNCC1` registered a melting point of 246 to 250.1 °C.

In turn, `COc1ccc(S(=O)(=O)c2ccc(Cl)cc2)cc1C1CCNCC1` (as salt: hydrochloride) [compound 301, 4-[5-(4-chloro-benzenesulfonyl)2methoxy-phenyl] piperidine] came in with a melting point of 235.5 to 236 °C.

Molecule `COc1ccc(S(=O)(=O)c2ccc(F)c3ccccc23)cc1N1CCNCC1` (as salt: hydrochloride) [compound 401, 1-[5-(4-fluoro-naphthalene-1-sulfonyl)2-methoxyphenyl]piperazine] returned a melting point of 155 to 159 °C.

These data come from US6825202B2, “Arylsulfonyl derivatives with 5-HT6 receptor affinity” (Syntex (U.S.A.) LLC, priority 2001, dated 2004).
